Values joined by “and” are separate entries in the source; they are usually repeats but may differ in a detail not shown here. Equal entries are not always repeated.
Assays:
[1] = instrument: DT, stepped-field
[2] = instrument: TW, calibrated with phosphatidylcholines (ESI+) and phosphatidylethanolamines (ESI-)
[3] = instrument: DT, single field, calibrated with Agilent tune mix (Agilent)
[4] = [M+Na]+; instrument: DT; stepped-field

SMILES	collision cross section (N2) ([1]; [M-H]-)	collision cross section (N2) ([2]; [M-H]-) [Å²]	collision cross section (N2) ([3]; [M+H]+) [Å²]	also measured
CCCCC/C=C\C/C=C\C/C=C\CCCCCCC(=O)O[C@H](COCCCCCCCCCCCCCCCCCC)COP(=O)(O)OCCN [PE(o38:3)]				collision cross section (N2) ([1]; [M+H]+): 297.6 Å²
CCCC/C=C\CCCCCCCC(=O)OC[C@H](COP(=O)(O)OC[C@@H](O)CO)OC(=O)CCCCCCC/C=C\CCCCCCCC [PG(16:1/16:1)]	267.1 Å²			
CCCCCCCCCCCCCCCC(=O)OC[C@H](COP(=O)(O)O[C@H]1C(O)C(O)C(O)[C@@H](O)C1O)OC(=O)CCCCCCCCCCC (some centres not stated) [PI(12:0/16:0)]	273.5 Å²			
CCCCCCC/C=C\CCCCCCCC(=O)O[C@H](COC(=O)CCCCCCCCCCCC)COP(=O)(O)O[C@H]1C(O)C(O)C(O)[C@@H](O)C1O (some centres not stated) [PI(14:0/16:1)]	278.4 Å²			
CCCCC/C=C\C/C=C\C/C=C\CCCCCCC(=O)O[C@H](COC(=O)CCCCCCC/C=C\CCCCCC)COP(=O)(O)O[C@H]1C(O)C(O)C(O)[C@@H](O)C1O (some centres not stated) [PI(36:4)]	297.2 Å²	286.1	296.5	collision cross section (N2) ([2]; [M+Na]+): 290.5 Å²; collision cross section (N2) ([3]; [M+NH4]+): 297.3 Å²; collision cross section (N2) ([3]; [M+Na]+): 294.5 Å²
CCCCC/C=C\C/C=C\CCCCCCCCCCCC(=O)O[C@H](COC(=O)CCCCCCC/C=C\CCCCCC)COP(=O)(O)O[C@H]1C(O)C(O)C(O)[C@@H](O)C1O (some centres not stated) [PI(38:3)]	301.7 Å² and 303.9 Å²	293	304.2	collision cross section (N2) ([2]; [M+Na]+): 298.5 Å²; collision cross section (N2) ([3]; [M+NH4]+): 306 Å²; collision cross section (N2) ([3]; [M+Na]+): 303.1 Å²; collision cross section (N2) ([3]; [M-H]-): 293.7 Å²
CC/C=C\C/C=C\C/C=C\C/C=C\CCCCC(=O)OC[C@H](COP(=O)(O)O[C@H]1C(O)C(O)C(O)[C@@H](O)C1O)OC(=O)CCCCCCCCCCCCCCCCCCC (some centres not stated) [PI(38:4)]	303.6 Å² and 300.7 Å²	292.1	302.3	collision cross section (N2) ([2]; [M+Na]+): 297.4 Å²; collision cross section (N2) ([3]; [M+NH4]+): 304 Å²; collision cross section (N2) ([3]; [M-H]-): 292.9 Å²
CCCCCCCCCC/C=C\CCCCCCCCCC(=O)O[C@H](COC(=O)CCCCCCCCCCCCCCCCC)COP(=O)(O)OC[C@H](N)C(=O)O [PS(40:1)]	302.2 Å²			

Now from value to compound, other results behind:

collision cross section (N2) ([1]; [M-H]-)	collision cross section (N2) ([2]; [M-H]-) [Å²]	collision cross section (N2) ([3]; [M+H]+) [Å²]	SMILES	also measured
287.9 Å² and 287.8 Å²	277.3	288.1	CCCCC/C=C\C/C=C\CCCCCCCCCCCC(=O)O[C@H](COC(=O)CCCCCCC/C=C\C/C=C\CCCCC)COP(=O)(O)OCCN [PE(40:4)]	collision cross section (N2) ([2]; [M+H]+): 286.8 Å²; collision cross section (N2) ([3]; [M+Na]+): 293.3 Å²; collision cross section (N2) ([3]; [M-H]-): 278.5 Å²
270.4 Å²			CC/C=C\C/C=C\C/C=C\C/C=C\C/C=C\CCCC(=O)O[C@H](COCCCCCCCCCCCCCCCC)COP(=O)(O)OCCN [PE(o36:5)]	collision cross section (N2) [4]: 279.2 Å²
278 Å²	271.3		CC/C=C\C/C=C\C/C=C\C/C=C\CCCCC(=O)OC[C@H](COP(=O)(O)OC[C@@H](O)CO)OC(=O)CCCCCCCCCCCCCCCCC [PG(36:4)]	collision cross section (N2) ([2]; [M+Na]+): 281 Å²; collision cross section (N2) ([3]; [M+NH4]+): 283.4 Å²
289.2 Å²			CCCCC/C=C\C/C=C\CCCCCCCCCCCC(=O)O[C@H](COC(=O)CCCCCCCCCCC)COP(=O)(O)O[C@H]1C(O)C(O)C(O)[C@@H](O)C1O (some centres not stated) [PI(16:1/18:1)]	
276.9 Å²			CCCCC/C=C\C/C=C\CCCCCCCCCCCC(=O)O[C@H](COC(=O)CCCCCCCCCCC)COP(=O)(O)OC[C@H](N)C(=O)O [PS(16:1/18:1)]	
289.4 Å²	278.8	286.2	CCCCCCCCCC/C=C\CCCCCCCCCC(=O)O[C@H](COC(=O)CCCCCCCCCCCCC)COP(=O)(O)OC[C@H](N)C(=O)O [PS(36:1)]	collision cross section (N2) ([3]; [M+Na]+): 287.5 Å²; collision cross section (N2) ([3]; [M-H]-): 279.1 Å²
296.1 Å²		292.9	CCCCCCCCCC/C=C\CCCCCCCCCC(=O)O[C@H](COC(=O)CCCCCCCCCCCCCCC)COP(=O)(O)OC[C@H](N)C(=O)O [PS(38:1)]	
292.4 Å²	281.7		CCCCC/C=C\C/C=C\CCCCCCCCCCCC(=O)O[C@H](COC(=O)CCCCCCC/C=C\CCCCCC)COP(=O)(O)OC[C@H](N)C(=O)O [PS(38:3)]	

— the C3SDB collision cross section collection
